The results in this text go back to patent US12122761B2, “2-azaspiro[3.4]octane derivatives as M4 agonists” (NOVARTIS AG, priority 2019, dated 2024).

Structures are written as SMILES.

In one assay the target is T1, human cloned CHRM2 receptor (M2_CHO cells) (Homo sapiens, UniProt P08172).
T1 construct: expressed in transfected cells; host or cells: CHO-K1
T1 sequence (P08172 1-466): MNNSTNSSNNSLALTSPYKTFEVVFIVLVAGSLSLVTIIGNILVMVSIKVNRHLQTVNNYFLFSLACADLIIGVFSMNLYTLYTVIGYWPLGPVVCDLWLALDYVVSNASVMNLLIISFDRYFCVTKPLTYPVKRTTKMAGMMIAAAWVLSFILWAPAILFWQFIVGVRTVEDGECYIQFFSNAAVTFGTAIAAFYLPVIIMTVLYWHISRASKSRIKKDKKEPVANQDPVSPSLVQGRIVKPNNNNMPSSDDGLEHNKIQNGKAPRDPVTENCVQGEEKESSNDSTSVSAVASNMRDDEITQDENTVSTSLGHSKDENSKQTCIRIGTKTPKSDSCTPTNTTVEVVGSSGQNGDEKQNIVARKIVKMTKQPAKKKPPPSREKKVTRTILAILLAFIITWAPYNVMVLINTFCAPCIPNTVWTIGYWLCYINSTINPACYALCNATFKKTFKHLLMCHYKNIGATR
Put plainly: CHRM2 Ca++ Flux Assay (agonist mode, FDSS 7000EX). The following applies: Percent Activity measured to EC100 of Carbachol. The format is cell-based. Summed up: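 Response expressed as percent activity versus the Carbachol EC100, with curves fitted by four-parameter non-linear regression of triplicates. Stable M2_CHO cells were Ca++ dye-loaded and preincubated 60 min at room temperature in assay buffer containing 20 μM ATP; signal imaged for 3 minutes after compound.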
Turning to `O=C(N1CC2(CC[C@@H](N3CCC(c4ccccc4OC4CC5(COC5)C4)CC3)C2)C1)C1(F)CC1` (single isomer, unassigned) [Example 11C, (R)-(6-(4-(2-((2-oxaspiro[3.3]heptan-6-yl)oxy)phenyl)piperidin-1-yl)-2-azaspiro[3.4]octan-2-yl)(1-fluorocyclopropyl)methanone or (S)-(6-(4-(2-((2-oxaspiro[3.3]heptan-6-yl)oxy)phenyl)piperidin-1-yl)-2-azaspiro[3.4]octan-2-yl)(1-fluorocyclopropyl)methanone], the “M2 FDSS PA” value amounted to 0%. As to `O=C(N1CC2(CC[C@@H](N3CCC(c4ccccc4OC4CC5(COC5)C4)CC3)C2)C1)C1(F)CC1` (single isomer, unassigned) [Example 11D, (R)-(6-(4-(2-((2-oxaspiro[3.3]heptan-6-yl)oxy)phenyl)piperidin-1-yl)-2-azaspiro[3.4]octan-2-yl)(1-fluorocyclopropyl)methanone or (S)-(6-(4-(2-((2-oxaspiro[3.3]heptan-6-yl)oxy)phenyl)piperidin-1-yl)-2-azaspiro[3.4]octan-2-yl)(1-fluorocyclopropyl)methanone], the “M2 FDSS PA” value was 0%.

Still in this assay, the particulars now being: Percent Activity measured to EC100 of Carbachol; read-out: M2 FDSS PA.
As to `Fc1ccc(OC2CC3(COC3)C2)c(C2CCN([C@@H]3CCC4(C3)CN(c3nnco3)C4)CC2)c1` [Example 1B, (R)-2-(6-(4-(2-((2-oxaspiro[3.3]heptan-6-yl)oxy)-5-fluorophenyl)piperidin-1-yl)-2-azaspiro[3.4]octan-2-yl)-1,3,4-oxadiazole], the Emax came to 0%. Regarding `c1ccc(C2CCN([C@@H]3CCC4(C3)CN(c3nnco3)C4)CC2)c(OC[C@H]2COCCO2)c1` [Example 1C, 2-((R)-6-(4-(2-(((R)-1,4-dioxan-2-yl)methoxy)phenyl)piperidin-1-yl)-2-azaspiro[3.4]octan-2-yl)-1,3,4-oxadiazole], the Emax is 15%. On the same count and under the same terms, in the case of `Cc1coc(N2CC3(CC[C@@H](N4CCC(c5ccc(F)cc5OCC(C)(C)O)CC4)C3)C2)n1` [Example 3N, (R)-1-(5-fluoro-2-(1-(2-(4-methyloxazol-2-yl)-2-azaspiro[3.4]octan-6-yl)piperidin-4-yl)phenoxy)-2-methylpropan-2-ol] it was 0%; in that of `Cc1coc(N2CC3(CC[C@@H](N4CCC(c5ccccc5OCC(C)(C)O)CC4)C3)C2)n1` [Example 3O, (R)-2-methyl-1-(2-(1-(2-(4-methyloxazol-2-yl)-2-azaspiro[3.4]octan-6-yl)piperidin-4-yl)phenoxy)propan-2-ol], 0%. For the compound `COc1ccccc1C1CCN([C@@H]2CCC3(C2)CN(c2ncon2)C3)CC1` [Example 4A, (R)-3-(6-(4-(2-methoxyphenyl)piperidin-1-yl)-2-azaspiro[3.4]octan-2-yl)-1,2,4-oxadiazole], the Emax was found to be 21%. `COc1ccccc1C1CCN([C@@H]2CCC3(C2)CN(c2cncnc2)C3)CC1` [Example 5A, (R)-6-(4-(2-methoxyphenyl)piperidin-1-yl)-2-(pyrimidin-5-yl)-2-azaspiro[3.4]octane]: the Emax turned out to be 0%. With `CC(C)(O)COc1ccccc1C1CCN([C@@H]2CCC3(C2)CN(c2cncnc2)C3)CC1` [Example 5B, (R)-2-methyl-1-(2-(1-(2-(pyrimidin-5-yl)-2-azaspiro[3.4]octan-6-yl)piperidin-4-yl)phenoxy)propan-2-ol], the Emax was 0%. As to `Cc1ncncc1N1CC2(CC[C@@H](N3CCC(c4ccccc4OCC(C)(C)O)CC3)C2)C1` [Example 5C, (R)-2-methyl-1-(2-(1-(2-(4-methylpyrimidin-5-yl)-2-azaspiro[3.4]octan-6-yl)piperidin-4-yl)phenoxy)propan-2-ol], the Emax turned out to be 0%. `COc1ccccc1C1CCN([C@@H]2CCC3(C2)CN(c2ccc(C)nc2)C3)CC1` [Example 5D, (R)-6-(4-(2-methoxyphenyl)piperidin-1-yl)-2-(6-methylpyridin-3-yl)-2-azaspiro[3.4]octane]: the Emax was determined as 0%. With `COc1ccccc1C1CCN([C@@H]2CCC3(C2)CN(c2cnc(C)nc2)C3)CC1` [Example 5E, (R)-6-(4-(2-methoxyphenyl)piperidin-1-yl)-2-(2-methylpyrimidin-5-yl)-2-azaspiro[3.4]octane], the Emax was determined as 0%. As to `COc1ccccc1C1CCN([C@@H]2CCC3(C2)CN(c2cncc(F)c2)C3)CC1` [Example 5F, (R)-2-(5-fluoropyridin-3-yl)-6-(4-(2-methoxyphenyl)piperidin-1-yl)-2-azaspiro[3.4]octane], the Emax came out at 26%. For the compound `COc1ccccc1C1CCN([C@@H]2CCC3(C2)CN(c2cncc(C)n2)C3)CC1` [Example 5G, (R)-6-(4-(2-methoxyphenyl)piperidin-1-yl)-2-(6-methylpyrazin-2-yl)-2-azaspiro[3.4]octane], the Emax was determined as 0%. Consider `COc1ccccc1C1CCN([C@@H]2CCC3(C2)CN(c2cnccn2)C3)CC1` [Example 5H, (R)-6-(4-(2-methoxyphenyl)piperidin-1-yl)-2-(pyrazin-2-yl)-2-azaspiro[3.4]octane], for which the Emax stood at 0%. Turning to `COc1ccccc1C1CCN([C@@H]2CCC3(C2)CN(c2nccnc2C(F)(F)F)C3)CC1` [Example 5I, (R)-6-(4-(2-methoxyphenyl)piperidin-1-yl)-2-(3-(trifluoromethyl)pyrazin-2-yl)-2-azaspiro[3.4]octane], the Emax worked out at 49%. Still for that read-out and setting: with `COc1ccccc1C1CCN([C@@H]2CCC3(C2)CN(c2nccnc2C)C3)CC1` [Example 5J, (R)-6-(4-(2-methoxyphenyl)piperidin-1-yl)-2-(3-methylpyrazin-2-yl)-2-azaspiro[3.4]octane] the figure was 0%; with `COc1ccccc1C1CCN([C@@H]2CCC3(C2)CN(c2cccnc2)C3)CC1` [Example 5K, (R)-6-(4-(2-methoxyphenyl)piperidin-1-yl)-2-(pyridin-3-yl)-2-azaspiro[3.4]octane], 18%; with `Cc1ccc(N2CC3(CC[C@@H](N4CCC(c5ccccc5O[C@@H]5CCOC5)CC4)C3)C2)cn1` [Example 5L, (R)-2-(6-methylpyridin-3-yl)-6-(4-(2-(((R)-tetrahydrofuran-3-yl)oxy)phenyl)piperidin-1-yl)-2-azaspiro[3.4]octane], 36%. `COc1ccccc1C1CCN([C@@H]2CCC3(C2)CN(c2ncnc(C)n2)C3)CC1` [Example 5M, (R)-6-(4-(2-methoxyphenyl)piperidin-1-yl)-2-(4-methyl-1,3,5-triazin-2-yl)-2-azaspiro[3.4]octane]: the Emax stood at 0%.

`COc1ccccc1C1CCN([C@@H]2CCC3(C2)CN(c2ccc(Cl)nn2)C3)CC1` [Example 5N, (R)-2-(6-chloropyridazin-3-yl)-6-(4-(2-methoxyphenyl)piperidin-1-yl)-2-azaspiro[3.4]octane]: the Emax is 35%. `COc1ccccc1C1CCN([C@@H]2CCC3(C2)CN(c2cccnn2)C3)CC1` [Example 5O, (R)-6-(4-(2-methoxyphenyl)piperidin-1-yl)-2-(pyridazin-3-yl)-2-azaspiro[3.4]octane]: the Emax was 0%. `COc1ccc(Cl)cc1C1CCN([C@@H]2CCC3(C2)CN(c2ccnnc2)C3)CC1` [Example 5P, (R)-6-(4-(5-chloro-2-methoxyphenyl)piperidin-1-yl)-2-(pyridazin-4-yl)-2-azaspiro[3.4]octane]: the Emax is 16%.

With `c1ccc(C2CCN([C@@H]3CCC4(C3)CN(c3ncncn3)C4)CC2)c(OCC2CCOCC2)c1` [Example 5Q, (R)-6-(4-(2-((tetrahydro-2H-pyran-4-yl)methoxy)phenyl)piperidin-1-yl)-2-(1,3,5-triazin-2-yl)-2-azaspiro[3.4]octane], the Emax stood at 0%.

For `COc1ccccc1C1CCN([C@@H]2CCC3(C2)CN(c2cc(Cl)nnc2Cl)C3)CC1` [Example 5R, (R)-2-(3,6-dichloropyridazin-4-yl)-6-(4-(2-methoxyphenyl)piperidin-1-yl)-2-azaspiro[3.4]octane], the Emax came to 0%. As for `COc1ccccc1C1CCN([C@@H]2CCC3(C2)CN(c2ccnnc2)C3)CC1` [Example 5S, (R)-6-(4-(2-methoxyphenyl)piperidin-1-yl)-2-(pyridazin-4-yl)-2-azaspiro[3.4]octane], the Emax stood at 0%.

Staying with this assay, now noted: agonist mode; geometric mean if tested more than once; read-out: M2 FDSS EC50.
In general, EC50 refers to the concentration needed to bring the measured effect to its halfway point. In the case of `c1ccc(C2CCN([C@@H]3CCC4(C3)CN(c3nnco3)C4)CC2)c(OC[C@H]2COCCO2)c1` [Example 1C, 2-((R)-6-(4-(2-(((R)-1,4-dioxan-2-yl)methoxy)phenyl)piperidin-1-yl)-2-azaspiro[3.4]octan-2-yl)-1,3,4-oxadiazole], the EC50 amounted to 0.017 µM. For `COc1ccccc1C1CCN([C@@H]2CCC3(C2)CN(c2ncon2)C3)CC1` [Example 4A, (R)-3-(6-(4-(2-methoxyphenyl)piperidin-1-yl)-2-azaspiro[3.4]octan-2-yl)-1,2,4-oxadiazole], the EC50 was 0.019 µM. Same read-out and setting: with `COc1ccccc1C1CCN([C@@H]2CCC3(C2)CN(c2nccnc2C(F)(F)F)C3)CC1` [Example 5I, (R)-6-(4-(2-methoxyphenyl)piperidin-1-yl)-2-(3-(trifluoromethyl)pyrazin-2-yl)-2-azaspiro[3.4]octane] the figure was 13.2 µM; with `Cc1ccc(N2CC3(CC[C@@H](N4CCC(c5ccccc5O[C@@H]5CCOC5)CC4)C3)C2)cn1` [Example 5L, (R)-2-(6-methylpyridin-3-yl)-6-(4-(2-(((R)-tetrahydrofuran-3-yl)oxy)phenyl)piperidin-1-yl)-2-azaspiro[3.4]octane], 7.88 µM.
